In patent EP0326640B1, “(1R,5S,6S)-2-substituted thio-6 (R)-1-hydroxyethyl -1-methyl-carbapenem - carboxylic acid derivatives” (LEDERLE (JAPAN) LTD., priority 1987, dated 1989):
In brackets after ≈: the same amount, converted by molar mass.

Columns and labels:
Type in all cases: cell-based
[1] = system: Pseudomonas cepacia GN 11164; assay: Antibacterial activity against clinically isolated β-lactamase (cephalosporinase) producing strains (MIC); settings: Burkholderia cepacia, GN11164, cephalosporinase producing strain, SDA, 18 to 20 hours, read-out: MIC
Experimental: (§1) The antibacterial activities against clinically isolated β-lactamase producing strains were tested by the agar plate dilution method in accordance with the standard method of The Japanese Chemotherapy Society [Chemotherapy, Vol. 29, 76-79 (1981)]. A solution of a cephalosporinase producing strain stored by Episome Research Institute, prepared by incubating the strain in a sensitivity test broth (STB; product of Nissui K. K.) for 18 hours, was diluted with a fresh STB solution so that the solution contained 10⁶ cells per milliliter. The diluted solution was then inoculated as spots in a microplanter on a sensitivity disk agar-N (SDA; product of Nissui K. K.) containing a test compound. The disk agar was then incubated for 18 to 20 hours. The minimum inhibitory concentration was determined as a minimum concentration in which the test microorganism no longer grew after a 18 to 20-hour incubation.

[2] = system: Serratia marcescens GN 10857; assay: as above; settings: Serratia marcescens, GN10857, Serratia marcescens GN 10857; cephalosporinase producing strain, SDA, 18 to 20 hours; read-out: MIC
Experimental: as §1

[3] = system: Citrobactor freundii GN 346; assay: as above; settings: cephalosporinase producing strain, SDA, 18 to 20 hours
Experimental: as §1

[4] = system: Klebsiella oxytoca GN 10650; assay: as above; settings: Klebsiella oxytoca, GN10650, Klebsiella oxytoca GN 10650; cephalosporinase producing strain, SDA, 18 to 20 hours; read-out: MIC
Experimental: as §1

[5] = system: Proteus vulgaris GN 4413; assay: as above; settings: Proteus vulgaris, GN4413, Proteus vulgaris GN 4413; cephalosporinase producing strain, SDA, 18 to 20 hours; read-out: MIC
Experimental: as §1

[6] = system: Serratia marcescens L-65; assay: as above; settings: Serratia marcescens, L65, Serratia marcescens L-65; cephalosporinase producing strain, SDA, 18 to 20 hours; read-out: MIC
Experimental: as §1

[7] = system: Proteus vulgaris GN 7919; assay: as above; settings: Proteus vulgaris, GN7919, Proteus vulgaris GN 7919; cephalosporinase producing strain, SDA, 18 to 20 hours; read-out: MIC
Experimental: as §1

[8] = system: Citrobactor freundii GN 7391; assay: as above; settings: cephalosporinase producing strain, SDA, 18 to 20 hours
Experimental: as §1

[9] = system: Pseudomonas aeruginosa GN 10367; assay: as above; settings: GN10367; Pseudomonas aeruginosa GN 10367; cephalosporinase producing strain, SDA, 18 to 20 hours; read-out: MIC
Experimental: as §1

[10] = system: Serratia marcescens L-82; assay: as above; settings: L82, cephalosporinase producing strain, SDA, 18 to 20 hours, read-out: MIC
Experimental: as §1

[11] = system: Pseudomonas aeruginosa GN 918; assay: as above; settings: GN918; Pseudomonas aeruginosa GN 918; cephalosporinase producing strain, SDA, 18 to 20 hours; read-out: MIC
Experimental: as §1

[12] = system: Pseudomonas aeruginosa GN 10362; assay: as above; settings: GN10362, cephalosporinase producing strain, SDA, 18 to 20 hours, read-out: MIC
Experimental: as §1

[13] = system: Salmonella schottmuelleri 8006; assay: Antibacterial test, agar plate dilution method (MIC), standard strains; settings: MH agar, 37°C, 18 hours, read-out: MIC
Experimental: (§2) The antibacterial activities were tested by an agar plate dilution method in accordance with the standard method of The Japanese Chemotherapy Society [Chemotherapy, Vol. 29, 76-79 (1981)].
(§3) A Mueller-Hinton (MH) agar liquid medium of a test microorganism was cultured overnight at 37°C and the resultant culture medium was diluted with a buffered saline gelatin (BSG) solution to contain approximately 10⁶ cells of the test microorganisms per milliliter, and then the diluted solution was inoculated with a microplanter at the rate of approximately 5 microliters on a MH agar medium containing a test compound. This medium was then incubated at 37°C for 18 hours. The minimum inhibitory concentration (MIC) is determined as a minimum concentration in which no test microorganism could grow. It is noted here that the test organisms used were all standard strains.

[14] = system: Salmonella paratyphi 1015; assay: as above; settings: Salmonella enterica, MH agar, 37°C, 18 hours, read-out: MIC
Experimental: as §2, §3

[15] = system: Proteus vulgaris HX-19; assay: as above; settings: HX19; Proteus vulgaris HX-19; MH agar, 37°C, 18 hours; read-out: MIC
Experimental: as §2, §3

[16] = system: Morganella morganii IFO3848; assay: as above; settings: Morganella morganii, IFO3848, 18 h, MH agar, 37°C, read-out: MIC
Experimental: as §2, §3

[17] = system: Proteus vulgaris OX-19; assay: as above; settings: OX19; Proteus vulgaris OX-19; MH agar, 37°C, 18 hours; read-out: MIC
Experimental: as §2, §3

[18] = system: Serratia marcescens IAM1184; assay: as above; settings: Serratia marcescens, IAM1184, 18 h, MH agar, 37°C, read-out: MIC
Experimental: as §2, §3

[19] = system: Pseudomonas aeruginosa IFO 3445; assay: as above; settings: IFO3445, MH agar, 37°C, 18 hours, read-out: MIC
Experimental: as §2, §3

[20] = system: Salmonella enteritidis G14; assay: as above; settings: Salmonella enterica, MH agar, 37°C, 18 hours, read-out: MIC
Experimental: as §2, §3

[21] = system: Proteus mirabilis IFO3849; assay: as above; settings: Proteus mirabilis, IFO3849, 18 h, Proteus mirabilis IFO3849; MH agar, 37°C, 18 hours; read-out: MIC
Experimental: as §2, §3

[22] = system: Salmonella typhi 901; assay: as above; settings: Salmonella enterica, TYPHI, 18 h, MH agar, 37°C
Experimental: as §2, §3

[23] = system: Providencia rettgeri IFO 3850; assay: as above; settings: Providencia rettgeri, IFO3850, 18 h, MH agar, 37°C, read-out: MIC
Experimental: as §2, §3

[24] = system: Pseudomanas aeruginosa NCTC 10940; assay: as above; settings: 18 h, MH agar, 37°C, read-out: MIC
Experimental: as §2, §3

In the case of `Cc1nnc(SCC2=C(C(=O)O)N3C(=O)[C@@H](NC(=O)Cn4cnnn4)[C@H]3SC2)s1` [CEZ, cefazolin], the MIC [1] is reported as 0.78 µg/mL (≈ 1.72 µM), the MIC [2] is reported as 0.78 µg/mL (≈ 1.72 µM) and the MIC [3] is reported as 25 µg/mL (≈ 55 µM). It also gave an MIC [4] of 0.2 µg/mL (≈ 0.44 µM), an MIC [5] of 0.2 µg/mL (≈ 0.44 µM) and an MIC [6] of 0.2 µg/mL (≈ 0.44 µM). For the same compound, the MIC [7] was 3.13 µg/mL (≈ 6.89 µM), the MIC [8] was over 100 µg/mL and the MIC [9] was 3.13 µg/mL (≈ 6.89 µM). The MIC [10] was 0.39 µg/mL (≈ 0.858 µM), the MIC [11] was 6.25 µg/mL (≈ 13.8 µM) and the MIC [12] was 3.13 µg/mL (≈ 6.89 µM). For the same compound, the MIC [13] was 0.78 µg/mL (≈ 1.72 µM), the MIC [14] was 1.56 µg/mL (≈ 3.43 µM) and the MIC [15] was 6.25 µg/mL (≈ 13.8 µM). For the same compound, the MIC [16] was 25 µg/mL (≈ 55 µM), the MIC [17] was 6.25 µg/mL (≈ 13.8 µM) and the MIC [18] was over 100 µg/mL. It also gave an MIC [19] of over 100 µg/mL, an MIC [20] of 0.78 µg/mL (≈ 1.72 µM) and an MIC [21] of 6.25 µg/mL (≈ 13.8 µM). For the same compound, the MIC [22] was 0.78 µg/mL (≈ 1.72 µM), the MIC [23] was 12.5 µg/mL (≈ 27.5 µM) and the MIC [24] was over 100 µg/mL.
